Source: patent US10683272B2 (THE JOHNS HOPKINS UNIVERSITY, priority 2014, dated 2020)
Like-named read-outs stand apart in the source and are kept apart here. Where a SMILES comes first, the peptide text is derived from it. [ ]: non-standard residue; d: D form. The star is where a group is joined. ξ: configuration not given here. X1 = O=C(O)CC[C@H](NC(=O)N[C@@H](CCCCNC(=O)CCCCCCC(=O)*)C(=O)O)C(=O)O; DOTA = O=C(O)CN1CCN(CC(=O)O)CCN(CC(=O)*)CCN(CC(=O)O)CC1; ξF = NC(Cc1ccccc1)C(=O)O

Assays:
PSMA = PSMA (Homo sapiens, UniProt Q04609); assay: fluorescence-based PSMA inhibition assay (Example 1); assay type: biochemical
[1] = r1 relaxivity of solution phantoms at 9.4 T and 25° C.; assay type: physicochemical
Method: (§1) When imaged at 9.4 T and 25° C., solution phantoms indicated r1 relaxivities in PBS that vary between 3.0 and 6.2 mM^−1 s^−1 per Gd(III) and between 3.0 and 12.5 mM-1 s-1 per contrast agent (Table 1). As expected, Gd1 has the lowest relaxivity followed by Gd2 and Gd3 at 25° C. To determine selectivity and specificity of the agents, human prostate cancer cells genetically modified to express high amounts of PSMA (PC3 PIP) and the corresponding wild-type, PSMA-non-expressing cells (PC3 flu) were selected as negative control (Banerjee, Angew., 2001). […] Enhancement and T1 measurements by means of MRI of the cell pellets in the presence and absence of 50 μM Gd3 indicated higher enhancement and difference in T1 relaxation rates, ΔR1 between Gd3 treated PIP cells and the control PIP cells as compared to the Gd3-treated flu cells and the control flu control cells, after removal of the Gd3 from the cell system by washing with standard medium (FIG. 4B and FIG. 4C).

PSMA+ PC3 PIP cells [2] = assay: ICP-MS analysis of Gd in cell pellets; assay type: cell-based, human
Excerpt: Thus, the difference between ΔR1 of the PIP cells and that of the flu cells reflects the change due to the specific Gd3 binding to PSMA in the PIP cells.

[3] = test system: PSMA+ PC3 PIP and PSMA− PC3 flu cells; assay: T1-weighted MR imaging of cell pellets; assay type: cell-based, human; conditions: PSMA+ PC3 PIP vs PSMA− PC3 flu cell pellets
Method: FIG. 4A through FIG. 4C show T1 contrast enhancement generated by Gd3 in an isogenic human PC3 prostate cancer cell pair, PSMA+ PIP and PSMA− flu cells; (A) Color coded T1 maps of PIP and flu cells. Relaxation rates were determined at 25° C. at 9.4 T; (B) Quantification of T1 changes (ΔT1) in PIP and flu cells (n=4, P<0.05) following treatment with Gd3; (C) cellular uptake of Gd3 in PIP and flu cells.
as §1

PSMA+ PC3 PIP cells [4] = assay: cell internalization assay (ICP-MS); assay type: cell-based, human; conditions: PSMA+ PC3 PIP cells, 4 h incubation
Method: FIG. 6A and FIG. 6B show the % ID of Gd3 cell surface bound (A) and internalized (B) at 1, 4 and 24 h;
Moreover, slightly higher non-specific uptake was associated with Gd2 in PSMA− PC3 flu cells, which might be related to the lower K1 value of this agent compared to Gd1. As a further check on cellular uptake and internalization, a dual modality Gd monomeric contrast agent labeled with Rhodamine-Red™-X was prepared to confirm the PSMA-mediated internalization of this class of contrast agents (FIG. 5D).
A time-dependent internalization study was performed for Gd3 (FIG. 6A and FIG. 6B) after 1, 4 and 24 h of incubation. […] A similar amount of Gd (˜33-37% ID) was associated with the cell membrane at those same time-points.

[5] = test system: PSMA+ PC-3 PIP and PSMA− PC-3 flu tumors; assay: small animal PET-CT imaging; assay type: in vivo, NOD/SCID mice; conditions: 2 h post-injection
Method: Mice (n=3 for ^86Y-4 or ^86Y-6 and n=2 for ^86Y-5) were injected via the tail vein with 3.33-6.21 MBq (90-168 μCi) of radiotracer formulated in 100 μL of saline at pH ˜7. […] At different time points, anesthetized individual mice were placed in the prone position on the scanner gantry and secured with medical tape while the anesthesia flow rate was increased to 0.8 L/min. Images were reconstructed using the FORE/2D-OSEM method (two iterations, 16 subsets) and included correction for radioactive decay, scanner dead time, and scattered radiation. Partial volume correction (PVC) was not performed. After each PET scan, a CT scan was acquired for anatomic co-registration. To facilitate PET and CT image co-registration, a special animal bed was employed which fits both the PET and CT scanners. The animals were under anesthesia and immobilized when moving between scanners as well as during both scans. The reconstructed PET and CT images were then manually co-registered through rigid transformation, by aligning natural landmarks (such as the animal limbs and the bed contour) using the AMIDE software (from sourceforge.net/amide).
Dynamic, whole-body PET and CT images were acquired on an eXplore VISTA small-animal PET (GE Healthcare, Little Chalfont, Buckinghamshire, UK) and an X-SPECT small SPECT/CT system (Gamma Medica Ideas, Northridge, Calif.), respectively.

[6] = test system: PSMA+ PIP and PSMA− flu cells; assay: cell uptake and internalization study of ^177Lu-SRVI71; assay type: cell-based
[7] = test system: PSMA+ PIP and PSMA− flu mouse xenografts; conditions: for uptake in PSMA+ tumor: n=4, text b326
Method: In vivo evaluation was performed in standard PSMA+ PIP and PSMA− flu mouse xenografts and by performing SPECT imaging with a VECT or instrument with an extra ultra-high sensitivity mouse collimator as disclosed FIG. 25A, FIG. 25B and FIG. 25C.

Chain of PSMA (Q04609 whole entry): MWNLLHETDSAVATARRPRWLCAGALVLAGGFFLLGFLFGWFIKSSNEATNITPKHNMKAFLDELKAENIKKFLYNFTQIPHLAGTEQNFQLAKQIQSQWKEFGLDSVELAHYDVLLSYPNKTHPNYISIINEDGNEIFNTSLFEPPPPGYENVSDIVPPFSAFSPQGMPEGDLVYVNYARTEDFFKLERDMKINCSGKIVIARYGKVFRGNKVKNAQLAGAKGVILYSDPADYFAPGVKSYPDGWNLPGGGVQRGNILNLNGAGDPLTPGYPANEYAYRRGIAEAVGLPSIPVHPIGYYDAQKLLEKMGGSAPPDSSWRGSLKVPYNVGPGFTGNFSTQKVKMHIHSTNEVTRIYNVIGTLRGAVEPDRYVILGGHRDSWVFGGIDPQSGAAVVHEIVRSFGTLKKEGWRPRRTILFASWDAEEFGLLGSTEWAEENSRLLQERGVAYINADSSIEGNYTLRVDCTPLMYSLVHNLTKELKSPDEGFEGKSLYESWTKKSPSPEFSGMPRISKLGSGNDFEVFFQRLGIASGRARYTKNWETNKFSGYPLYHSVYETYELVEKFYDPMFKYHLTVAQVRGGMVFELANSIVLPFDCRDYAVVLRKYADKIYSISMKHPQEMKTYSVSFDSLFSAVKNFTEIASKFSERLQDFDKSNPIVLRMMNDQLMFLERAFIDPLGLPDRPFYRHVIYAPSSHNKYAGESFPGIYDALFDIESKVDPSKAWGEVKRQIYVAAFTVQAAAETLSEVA

SMILES: O=C([O-])CN1CCN(CC(=O)[O-])CCN(CC(=O)NCCCCC(NC(=O)CN2CCN(CC(=O)[O-])CCN(CC(=O)[O-])CCN(CC(=O)[O-])CC2)C(=O)NC(CCCCNC(=O)CCCCCCC(=O)NCCCC[C@H](NC(=O)N[C@@H](CCC(=O)O)C(=O)O)C(=O)O)C(=O)O)CCN(CC(=O)[O-])CC1.[Gd+3].[Gd+3] (stereo partly drawn) [Gd2, (30S,34S)-2,9,17,24,32-pentaoxo-1-(4,7,10-tris(carboxymethyl)-1,4,7,10-tetraazacyclododecan-1-yl)-8-(2-(4,7,10-tris(carboxymethyl)-1,4,7,10-tetraazacyclododecan-1-yl)acetamido)-3,10,16,25,31,33-hexaazahexatriacontane-11,30,34,36-tetracarboxylic acid, digadolinium(III) salt]
- Ki (PSMA): 18.2 nM
- r1 relaxivity, ionic (per Gd(III)) ([1]; 9.4 T, 25° C., PBS): 6.2 mM⁻¹ s⁻¹
- r1 relaxivity, molecular (per contrast agent) ([1]; 9.4 T, 25° C., PBS): 12.5 mM⁻¹ s⁻¹
- r1 relaxivity ([1]; column T1 of Table 1): 5.44 mM⁻¹ s⁻¹
- estimated intracellular Gd(III) concentration (PSMA+ PC3 PIP cells [2]): ~12.5 µM
- T1-weighted MR contrast of cell pellets [3]: did not demonstrate T1-weighted MR contrast or changes in R1
- percent of incubated dose associated with the cell surface (PSMA+ PC3 PIP cells [4]): 3.51±1.32 % ID
- percent of incubated dose internalized (PSMA+ PC3 PIP cells [4]): 21.63±3.51 % ID

SMILES: O=C([O-])CN1CCN(CC(=O)[O-])CCN(CC(=O)NC(Cc2ccccc2)C(=O)NC(Cc2ccccc2)C(=O)NC(Cc2ccccc2)C(=O)N[C@@H](CCCCNC(=O)CCCCCCC(=O)NCCCC[C@H](NC(=O)N[C@@H](CCC(=O)O)C(=O)O)C(=O)O)C(=O)O)CCN(CC(=O)[O-])CC1.[86Y+3] (stereo partly drawn) [^86Y-5] ({DOTA}-[ξF][ξF][ξF]K(X1)-OH)
- non-specific accumulation on PET/CT [5]: non-specific accumulation in the gastrointestinal tract

SMILES: O=C([O-])CN1CCN(CC(=O)[O-])CCN(CC(=O)[O-])C(Cc2ccc(NC(=S)NCCCCNC(=O)CCCCCCC(=O)NCCCC[C@H](NC(=O)N[C@@H](CCC(=O)O)C(=O)O)C(=O)O)cc2)CN(CC(=O)[O-])CC1.[177Lu+3] (stereo partly drawn) [^177Lu-SR-VI-71]
- cell uptake ([6]; 0.01-10 μCi, PSMA+ PIP vs PSMA− flu): high uptake in PSMA+ PIP and negligible uptake in PSMA− flu tumor
- blockade of uptake in PSMA+ cells ([6]; co-incubation of 10 μM of ZJ43): ~90%
- fraction of total cell associated radioactivity internalized ([6]; internalization study): ~44%
- PIP:flu ratio ([7]; 2 h): ~180
- kidney uptake ([7]; 2 h): 89.3±28.9%
- uptake in PSMA+ tumor ([7]; 2 h): 59.1±12.8 % ID/g
- Tissue biodistribution, Blood ([7]; 3 h): 0.14 ± 0.04
- Tissue biodistribution, Flu tumor ([7]; 3 h): 0.14 ± 0.03
- Tissue biodistribution, PIP tumor ([7]; 3 h): 41.46 ± 7.88
- Tissue biodistribution, SI ([7]; 3 h): 0.23 ± 0.12
- Tissue biodistribution, heart ([7]; 3 h): 0.09 ± 0.04
- Tissue biodistribution, kidney ([7]; 3 h): 53.66 ± 9.64
- Tissue biodistribution, liver ([7]; 3 h): 0.31 ± 0.25
- Tissue biodistribution, lung ([7]; 3 h): 0.62 ± 0.31
- Tissue biodistribution, muscle ([7]; 3 h): 0.24 ± 0.14
- Tissue biodistribution, salivary gland ([7]; 3 h): 0.42 ± 0.09
- Tissue biodistribution, spleen ([7]; 3 h): 1.83 ± 0.38
- Tissue biodistribution, Blood ([7]; 24 h): 0.03 ± 0.03
- Tissue biodistribution, Flu tumor ([7]; 24 h): 0.09 ± 0.01
- Tissue biodistribution, PIP tumor ([7]; 24 h): 27.52 ± 1.19
- Tissue biodistribution, SI ([7]; 24 h): 0.10 ± 0.05
- Tissue biodistribution, heart ([7]; 24 h): 0.04 ± 0.00
- Tissue biodistribution, kidney ([7]; 24 h): 4.35 ± 0.41
- Tissue biodistribution, liver ([7]; 24 h): 0.38 ± 0.35
- Tissue biodistribution, lung ([7]; 24 h): 0.25 ± 0.026
- Tissue biodistribution, muscle ([7]; 24 h): 0.04 ± 0.00
- Tissue biodistribution, salivary gland ([7]; 24 h): 0.07 ± 0.08
- Tissue biodistribution, spleen ([7]; 24 h): 0.74 ± 0.64
- kidney uptake ([7]; 24 h): 6.29±3.4 % ID/g
- uptake in PSMA+ tumor ([7]; 24 h): 40.6±5.8 ID/g
- Tissue biodistribution, Blood ([7]; 48 h): 0.03 ± 0.03
- Tissue biodistribution, Flu tumor ([7]; 48 h): 0.05 ± 0.00
- Tissue biodistribution, PIP tumor ([7]; 48 h): 16.99 ± 2.65
- Tissue biodistribution, SI ([7]; 48 h): 0.04 ± 0.01
- Tissue biodistribution, heart ([7]; 48 h): 0.02 ± 0.00
- Tissue biodistribution, kidney ([7]; 48 h): 2.35 ± 0.62
- Tissue biodistribution, liver ([7]; 48 h): 0.11 ± 0.07
- Tissue biodistribution, lung ([7]; 48 h): 0.06 ± 0.04
- Tissue biodistribution, muscle ([7]; 48 h): 0.02 ± 0.00
- Tissue biodistribution, salivary gland ([7]; 48 h): 0.10 ± 0.04
- Tissue biodistribution, spleen ([7]; 48 h): 0.17 ± 0.05
- Tissue biodistribution, Blood ([7]; 72 h): 0.01 ± 0.01
- Tissue biodistribution, Flu tumor ([7]; 72 h): 0.04 ± 0.00
- Tissue biodistribution, PIP tumor ([7]; 72 h): 15.63 ± 4.62
- Tissue biodistribution, SI ([7]; 72 h): 0.05 ± 0.03
- Tissue biodistribution, heart ([7]; 72 h): 0.03 ± 0.01
- Tissue biodistribution, kidney ([7]; 72 h): 2.59 ± 1.10
- Tissue biodistribution, liver ([7]; 72 h): 0.05 ± 0.03
- Tissue biodistribution, lung ([7]; 72 h): 0.03 ± 0.02
- Tissue biodistribution, muscle ([7]; 72 h): 0.01 ± 0.01
- Tissue biodistribution, salivary gland ([7]; 72 h): 0.09 ± 0.04
- Tissue biodistribution, spleen ([7]; 72 h): 0.09 ± 0.08
- Tissue biodistribution, Blood ([7]; 96 h): 0.00 ± 0.00
- Tissue biodistribution, Flu tumor ([7]; 96 h): 0.03 ± 0.0
- Tissue biodistribution, PIP tumor ([7]; 96 h): 9.04 ± 1.72
- Tissue biodistribution, SI ([7]; 96 h): 0.01 ± 0.00
- Tissue biodistribution, heart ([7]; 96 h): 0.01 ± 0.00
- Tissue biodistribution, kidney ([7]; 96 h): 1.44 ± 0.11
- Tissue biodistribution, liver ([7]; 96 h): 0.04 ± 0.0
- Tissue biodistribution, lung ([7]; 96 h): 0.05 ± 0.01
- Tissue biodistribution, muscle ([7]; 96 h): 0.01 ± 0.0
- Tissue biodistribution, salivary gland ([7]; 96 h): 0.06 ± 0.02
- Tissue biodistribution, spleen ([7]; 96 h): 0.06 ± 0.03
